Data from US20020026945A1, “Enhancement of photodynamic therapy by anti-angiogenic treatment” (priority 2000, published 2002).
Residues, ends and D or L forms follow the SMILES beside them.

What was measured:
tumor cells = conditions: cited from earlier work
angiogenesis = conditions: preclinical studies; cited from earlier work
xenograft models = conditions: in vivo; cited from earlier work
VEGF [1] = test: VEGF ELISA of tumor extracts after PDT; format: in vivo, mouse; conditions: PDT plus 2 doses of agent versus PDT alone; tumors collected 24 hr after PDT
Experimental: Tumor bearing mice received either no treatment (Control), photodynamic therapy alone, or photodynamic therapy plus 2 injections of either EMAP-II or IM862 (1 hr prior to photodynamic therapy and 23 hr after photodynamic therapy). Tumor samples were collected 24 hr after PDT and assayed for VEGF expression using a commercial ELISA assay kit. Each group represents the mean ± SE of 6 individual tumor samples.
(§1) In-vivo photodynamic therapy tumor treatments were performed as previously reported on tumors measuring 6-7 mm in diameter (17). Briefly, photodynamic therapy procedures included an i.v. injection of PH (5 mg/kg) followed 24 h later with non-thermal laser tumor irradiation using an argon pumped dye laser emitting red light at 630 nm. A light dose rate of 75 mW/cm^2 and a total light dose of 200 J/cm^2 were used for all in-vivo PDT treatments. Following treatment, tumors were measured 3 times per week. Cures were defined as being disease free for at least 40 days following photodynamic therapy (17). Anti-angiogenic treatment was performed using either EMAP-II or IM862. […]
A Quantikine M mouse VEGF ELISA kit (R&D Systems, Minneapolis, Minn.) was used to quantify VEGF levels in cell culture media as well as in tumor extracts from control and treated mice. […]
The effects of the anti-angiogenic derivatives on photodynamic therapy induced VEGF levels were analyzed in the treated tumors. […]

[2] = in vivo; cited from earlier work
VEGF [3] = conditions: preclinical studies; cited from earlier work
[4] = test system: AIDS associated Kaposi's sarcoma; conditions: intranasal administration; reference 16; cited from earlier work
BA mammary carcinomas = test: In-vivo PDT tumor treatment, tumor cures; parameters: species or system C3H/HeJ mice; conditions: for tumor cures or tumor regression / tumor growth parameters: anti-angiogenic treatment alone, daily IP for 10 days, no PDT; for tumor cures: single PDT (PH 5 mg/kg, 200 J/cm^2) plus daily IP injections for 10 days (EMAP-II 50 μg/kg, IM862 25 mg/kg), disease free at least 40 days
Experimental: BA mouse mammary carcinoma cells (originally obtained from the NIH tumor bank) were used in all in-vitro and in-vivo experiments (17). Cells were grown as a monolayer in RPMI 1640 media supplemented with 10% fetal calf serum (FCS) and antibiotics. The plating efficiency for the BA cells ranged from 40-60%. Subcutaneous BA mammary carcinomas were generated by trocar injection of 1-mm^3 pieces of tumor to the hind right flank of 8-12 week old female C3H/HeJ mice (17).
In-vivo photodynamic therapy tumor treatments were performed as previously reported on tumors measuring 6-7 mm in diameter (17). Briefly, photodynamic therapy procedures included an i.v. injection of PH (5 mg/kg) followed 24 h later with non-thermal laser tumor irradiation using an argon pumped dye laser emitting red light at 630 nm. A light dose rate of 75 mW/cm^2 and a total light dose of 200 J/cm^2 were used for all in-vivo PDT treatments. Following treatment, tumors were measured 3 times per week. Cures were defined as being disease free for at least 40 days following photodynamic therapy (17). Anti-angiogenic treatment was performed using either EMAP-II or IM862. Each compound was administered as daily IP injections for 10 consecutive days starting 1 h prior to photodynamic therapy light treatment. Individual IM862 doses were 25 mg/kg and individual EMAP-II doses were 50 μg/kg. Tumor tissue hypoxia was induced in selected experiments by clamping lesions for 45 minutes. Statistical analysis was performed using the X^2 test for evaluation of tumor cure rates.
A photodynamic therapy procedure, which produced a moderate cure rate alone, was used to measure positive or negative changes in tumor response when a single photodynamic therapy treatment was combined with daily injections of EMAP-II or IM862 for 10 days (17).

VEGF [5] = test: VEGF ELISA of culture media of BA mammary carcinoma cells; format: cell-based, mouse; conditions: in-vitro PDT, PH 25 μg/ml, 210 J/m^2, measured 24 hr after treatment
VEGF [6] = test: Western immunoblot of VEGF in treated tumors; parameters: species or system C3H mice; conditions: tumor lysates collected 24 hours after in-vivo PDT
Experimental: (§2) In FIG. 1A, tumors were collected immediately following treatment and evaluated for HIF-1α expression by Western immunoblot analysis. HIF-1α was not detectable in control tumors measuring 6-7 mm in diameter. […] In FIG. 1B, separate tumors were collected 24 hr after photodynamic therapy or clamping (45 min) and assayed for VEGF expression by Western immunoblot analysis. Expression of actin was used to monitor protein loading.
as §1
(§3) Tumors were collected at various times after treatment, homogenized with a polytron in 1X reporter lysis buffer (Promega, Wis.) and evaluated for protein expression as described previously (18). […]

HIF-1α = test: Western immunoblot of HIF-1α in treated tumors; format: in vivo, C3H mice
Experimental: as §2, §1, §3

[7] = in vivo; cited from earlier work; remark: listed apart in the source
vessel ingrowth = conditions: experimental angiogenesis models and primary tumors; cited from earlier work
tumor growth = conditions: reference 15; cited from earlier work
[8] = test system: growing capillary endothelial cells; conditions: time and dose dependent; reference 15; cited from earlier work

Q: Which “direct cytotoxic effect on tumor cells” value (tumor cells) does the source give for `N[C@@H](CCC(=O)O)C(=O)N[C@@H](Cc1c[nH]c2ccccc12)C(=O)O` [IM862, L-glutamyl-L-tryptophan] (H-Glu-Trp-OH) here?
A: no direct cytotoxic effect

Q: What about the “angiogenesis in chorioallantoic membrane assays” value (angiogenesis) of the same molecule?
A: inhibits angiogenesis

Q: What about the “tumor growth in xenograft models” value (xenograft models) of the same molecule?
A: inhibits tumor growth

Q: And the “VEGF levels in PDT treated tumors (ELISA)” value (VEGF [1])?
A: decrease in VEGF levels

Q: And the safety and tolerability [2]?
A: safe and well tolerated

Q: What about the “VEGF production in monocytic lineage cells” value (VEGF [3]) of the same molecule?
A: inhibits VEGF production

Q: And the “antitumor activity in patients” value [4]?
A: exhibits antitumor activity

Q: And the “tumor cures or tumor regression” value (BA mammary carcinomas)?
A: did not produce any tumor cures or tumor regression

Q: And the tumor growth parameters (BA mammary carcinomas)?
A: only slightly modified tumor growth parameters

Q: What about the tumor cures (BA mammary carcinomas) of the same molecule?
A: 78%

Q: Which “VEGF levels in culture media” value (VEGF [5]) does the source give for Photofrin porfimer sodium here?
A: modestly increase in VEGF levels

Q: What about the “VEGF expression within treated lesions (Western)” value (VEGF [6]) of the same molecule?
A: induced significant increases in VEGF expression

Q: And the “HIF-1α expression (Western)” value (HIF-1α; PDT (PH 5 mg/kg; 200 J/cm^2), tumors collected immediately following treatment)?
A: induced HIF-1α expression

Q: What about the “time after photodynamic therapy at which HIF-1α expression is observed” value (HIF-1α; PDT of BA tumors in C3H mice) of the same molecule?
A: ≤ 5 min

Q: What about the cure rate (BA mammary carcinomas; photodynamic therapy alone (PH 5 mg/kg i.v., 630 nm, 200 J/cm^2), cure = disease free for at least 40 days) of the same molecule?
A: 39%

B1: EMAP-II: recombinant single chain polypeptide which inhibits tumor growth and has anti-angiogenic activity (protein, UniProt Q12904 147-312, looked up)
Endothelial …: SKPIDVSRLDLRIGCIITARKHPDADSLYVEEVDVGEIAPRTVVSGLVNHVPLEQMQNRMVILLCNLKPAKMRGVLSQAMVMCASSPEKIEILAPPNGSVPGDRITFDAFPGEPDKELNPKKKIWEQIQPDLHTNDECVATYKGVPFEVKGKGVCRAQTMSNSGIK
modifications: Endothelial monocyte-activating polypeptide 2
Q: With B1 as the molecule, how does the “toxicity in normal organs” value [7] read?
A: does not induce toxicity

Q: What about the vessel ingrowth (vessel ingrowth) of the same molecule?
A: prevents vessel ingrowth

Q: And the “VEGF levels in PDT treated tumors (ELISA)” value (VEGF [1])?
A: statistically significant decrease

Q: What about the tumor growth (tumor growth) of the same molecule?
A: inhibits tumor growth

Q: And the “apoptosis in growing capillary endothelial cells” value [8]?
A: induces apoptosis

Q: What about the “tumor cures or tumor regression” value (BA mammary carcinomas) of the same molecule?
A: did not produce any tumor cures or tumor regression

Q: And the tumor growth parameters (BA mammary carcinomas)?
A: only slightly modified tumor growth parameters

Q: And the tumor cures (BA mammary carcinomas)?
A: 89%
